Results from ChEMBL document CHEMBL3085760, “Novel polyamine analogues: from substrates towards potential inhibitors of monoamine oxidases” (Eur J Med Chem, 2013).
Active and inactive are the calls of the source. The calls are words filed in the database; no cut-off is given here.

What was measured:
[1] = biological target: T1, Amine oxidase [copper-containing] 3 (Homo sapiens) (UniProt Q16853); test: Ratio of relative Vmax to Km for recombinant human VAP-1 assessed as hydrogen peroxide generation rate preincubated for 30 mins by Amplex Red assay relative to control
T1 sequence (whole entry): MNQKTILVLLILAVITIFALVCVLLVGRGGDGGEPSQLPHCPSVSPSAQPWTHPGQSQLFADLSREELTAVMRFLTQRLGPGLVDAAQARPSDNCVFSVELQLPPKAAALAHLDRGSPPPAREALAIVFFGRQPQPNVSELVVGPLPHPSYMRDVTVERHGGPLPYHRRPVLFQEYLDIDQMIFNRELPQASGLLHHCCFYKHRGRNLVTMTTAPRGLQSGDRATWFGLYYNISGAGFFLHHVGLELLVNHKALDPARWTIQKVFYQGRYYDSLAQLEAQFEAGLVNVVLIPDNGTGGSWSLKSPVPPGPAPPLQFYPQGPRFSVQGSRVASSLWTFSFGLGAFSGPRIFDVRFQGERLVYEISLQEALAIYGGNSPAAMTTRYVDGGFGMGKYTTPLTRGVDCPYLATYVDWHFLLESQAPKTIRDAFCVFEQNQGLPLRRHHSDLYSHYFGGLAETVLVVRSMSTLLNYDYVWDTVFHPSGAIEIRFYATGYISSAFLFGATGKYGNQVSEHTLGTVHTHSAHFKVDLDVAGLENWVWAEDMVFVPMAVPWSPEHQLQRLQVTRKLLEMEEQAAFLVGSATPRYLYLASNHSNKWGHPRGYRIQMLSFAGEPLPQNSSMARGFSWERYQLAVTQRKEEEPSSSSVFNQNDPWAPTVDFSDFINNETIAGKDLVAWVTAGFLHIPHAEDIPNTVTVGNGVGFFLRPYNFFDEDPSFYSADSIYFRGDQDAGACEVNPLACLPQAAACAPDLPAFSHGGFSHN

[2] = biological target: T1, Amine oxidase [copper-containing] 3 (Homo sapiens); test: Activity at recombinant human VAP-1 assessed as hydrogen peroxide generation rate per min/mg preincubated for 30 mins by Amplex Red assay relative to control
[3] = biological target: T1, Amine oxidase [copper-containing] 3 (Homo sapiens); test: Ratio of relative Vmax to Km for recombinant human VAP-1 assessed as hydrogen peroxide generation rate using benzylamine as substrate at 200 uM preincubated for 30 mins by Amplex Red assay
[4] = biological target: T1, Amine oxidase [copper-containing] 3 (Homo sapiens); test: Activity at recombinant human VAP-1 assessed as hydrogen peroxide generation rate per min/mg using benzylamine as substrate at 200 uM preincubated for 30 mins by Amplex Red assay relative to control
[5] = biological target: T1, Amine oxidase [copper-containing] 3 (Homo sapiens); test: Activity at recombinant human VAP-1 assessed as hydrogen peroxide generation rate preincubated for 30 mins by Amplex Red assay
Homo sapiens [6] = species: Homo sapiens; test: Selectivity ratio of Ki for recombinant human MAO-A to Ki for recombinant human MAO-B
Homo sapiens [7] = species: Homo sapiens; test: Selectivity ratio of Ki for recombinant human MAO-B to Ki for recombinant human MAO-A

Row | SMILES | fold change (FC) [1] | fold change (FC) [2] | fold change (FC) [3] | fold change (FC) [4] | Activity [5] | Ratio Ki (Homo sapiens [6]) | Ratio Ki (Homo sapiens [7])
1 | NCCCOCCCCOCCCNCc1cccs1 | 0.87 | 0.71 | – | – | – | – | –
2 | NCCCNCCCCNCCCNCc1cccnc1 | – | – | 0.69 | 0.85 | inactive | – | –
3 | NCCCNCCCCNCCCNCc1cccs1 | – | – | 0.6 | 1 | inactive | 9.8 | –
4 | NCCCCCCCCCCCCNCc1ccccc1 | 80 | 1.88 | – | – | – | – | –
5 | c1ccc(CNCCCCCCCCCCCCNCc2ccccc2)cc1 | – | – | 0.35 | 0.89 | – | – | –
6 | NCCCCCCCCCCCCNCc1cccs1 | 35 | 1.77 | – | – | – | – | –
7 | NCCCNCCCCNCCCN | – | – | 0.96 | 1 | – | – | –
8 | NCCCNCCCCNCCCNCc1ccccc1 | – | – | 0.66 | 0.77 | – | – | 1.7
9 | CN(CCCCCCCCCCCCN=C=S)Cc1ccccc1 | – | – | 0.66 | 0.69 | – | – | 1.8
10 | NCCCNCCCCNCCCNCc1ccc2ccccc2c1 | – | – | 0.97 | 1.12 | inactive | – | –
11 | NCCCCCCCCNCCCNCc1cccs1 | 0.09 | 0.38 | – | – | – | – | –
12 | CN(CCCCCCCCCCCCN)Cc1ccccc1 | 30 | 0.73 | – | – | – | – | –
